Values of other authors in paper PMC9441699 (Frontiers in Cellular and Infection Microbiology, 2022).
Read-outs that look alike come from different tables or passages of the source.

Key:
Vero cells = system: Vero cells; set-up: method as in Ho et al., 2007; conditions: 0, 10, 50, 100, 200 and 400 µ/mL; ref Ho et al., 2007
[1] = target: angiotensin converting enzyme from rabbit lung; set-up: method as in Yu et al., 2012; conditions: 0.01-10 µM; ref Yu et al., 2012
MERS-CoV = conditions: 2019
HcoV-OC43 = conditions: 2019
[2] = system: HcoV-NL63 inLLC-MK2 cells; set-up: method as in Weng et al., 2019; conditions: 0, 10, 50,100 µM/36h; ref Weng et al., 2019; read-out: Inhibition of viral cytopathicity IC50
RdRp Dengue virus = system: RdRp Dengue virus; set-up: method as in Coulerie et al., 2013; conditions: in vitro; ref Coulerie et al., 2013
SARS-CoV [3] = conditions: ref Li et al., 2005
[4] = system: interaction of S protein with ACE2; set-up: method as in Ho et al., 2007; dose or concentration left out as unconfirmed; conditions: ref Ho et al., 2007
SARS-CoV [5] = conditions: read-out: EC50 SARS-CoV viral replication
[6] = 1, 2.5, 20 µM/16h, ref Jo et al., 2020, read-out: IC50
[7] = tanshinones from Salvia miltiorrhiza, read-out: IC50 against PLpro

In the case of `C[C@@H]1O[C@@H](O[C@H]2[C@H](Oc3cc(O)c4c(=O)cc(-c5ccc(O)cc5)oc4c3)O[C@H](CO)[C@@H](O)[C@@H]2O)[C@H](O)[C@H](O)[C@H]1O` [Ligand L18, Rhoifolin], the IC50 (SARS-CoV-3CLpro; [6]) is listed as 27.4 µM.

For `COc1ccc(-c2cc(=O)c3c(O)c(OC)c(O[C@@H]4O[C@H](CO[C@@H]5O[C@@H](C)[C@H](O)[C@@H](O)[C@H]5O)[C@@H](O)[C@H](O)[C@H]4O)cc3o2)cc1` [Ligand L17, Pectolinarin], the IC50 (SARS-CoV-3CLpro; [6]) is listed as 37.8 µM.

For `C=C(C)C(Cc1c(OC)ccc(C(=O)/C=C/c2ccc(O)cc2)c1O)OO` (stereo not shown) [Ligand L02, Xanthoangelol E], the IC50 (SARS-CoV-PLpro; 0, 12.5, 25, 50 µM, ref Park et al., 2016, read-out: Inhibition of SARS-CoV-PLpro activity IC50) is given as 1.2 µM and the IC50 (SARS-CoV-3CLpro; 0, 12.5, 25, 50 µM, ref Park et al., 2016, read-out: Inhibition of SARS-CoV-3CLpro activity IC50) is given as 11.4 µM.

For `Cc1cc(O)c2c(c1)C(=O)c1cc(O)cc(O)c1C2=O` [Ligand L07, Emodin], the IC50 (Vero cells) is given as 200 µM.

For `COc1cc([C@H]2Oc3cc4c(c(O)c3C(=O)[C@@H]2O)CCC(C)(CCCC(C)(C)O)O4)ccc1O` (stereo partly shown) [Ligand L06, Tomentin E], the IC50 (SARS-CoV-PLpro; 0, 6.25, 12.5, 25 µM, ref Cho et al., 2013, read-out: IC50) is listed as 5 µM.

In the case of `O=c1c(O)c(-c2cc(O)c(O)c(O)c2)oc2cc(O)cc(O)c12` [Ligand L03, Myricetin], the “inhibitory effect against SARS-CoV helicase” value (SARS-CoV helicase) is listed as “moderate inhibitory impacts” and the IC50 [1] is listed as 2.71 µM.

For `Cc1cccc2c3c(ccc12)C1=C(C(=O)C3=O)[C@@H](C)CO1` [Ligand L09, Dihydrotanshinone l,], the IC50 (SARS-CoV-PLpro; [7]) is given as 4.9 µM and the IC50 (SARS-CoV-3CLpro; 0-200 µM/60min, ref Park et al., 2012b, read-out: IC50) is given as 14.4 µM.

For `O=c1cc(-c2ccc(O)cc2)oc2cc(O)c(O)c(O)c12` [Ligand L13, Scutellarein], the “inhibitory effect against SARS-CoV helicase” value (SARS-CoV helicase) is listed as “moderate inhibitory impacts” and the IC50 (SARS-CoV helicase; 0.01-10 µM, In vitro, ref Yu et al., 2012) is listed as 0.86 µM.

In the case of `CC[C@H]1CN2CCc3cc(OC)c(OC)cc3[C@@H]2C[C@@H]1C[C@H]1NCCc2cc(OC)c(OC)cc21` [Emetine, reference compound], the EC50 (HcoV-NL63; ref Weber and Opatz, 2019, read-out: EC50 HcoV-NL63) is listed as 1.43 µM, the EC50 (MERS-CoV; ref Weber and Opatz) is listed as 0.34 µM and the EC50 (HcoV-OC43; ref Weber and Opatz) is listed as 0.3 µM.

For `O=c1c(O)c(-c2ccc(O)cc2)oc2c(O)c(O)cc(O)c12` [Ligand L16, Herbacetin], the IC50 (SARS-CoV-3CLpro; [6]) is listed as 33.2 µM.

In the case of `O=C(O)c1cc(O)c(O)c(O)c1` [Ligand L12, Gallic acid], the IC50 [2] is given as 71.5 µM.

In the case of `O=C(/C=C/c1ccc(O)c(O)c1)O[C@@H]1C[C@](O)(C(=O)O)C[C@@H](O)[C@H]1O` [Ligand L11, Chlorogenic acid], the IC50 [2] is given as 43.5 µM.

For `COc1cc(/C=C/C(=O)NC(O)C(=O)c2ccc(O)cc2)ccc1O` (stereo not shown) [Ligand L15, Terrestrimine], the IC50 (SARS-CoV-PLpro; 1,10,100,1000 µM, ref Song et al., 2014, read-out: IC50) is given as 15.8 µM.

For `O=C(O)/C=C/c1ccc(O)c(O)c1` [Ligand L10, Caffeic acid], the IC50 [2] is given as 3.54 µM.

In the case of `COc1cc(O)c2c(=O)cc(-c3ccc(O)cc3)oc2c1-c1cc(-c2cc(=O)c3c(O)cc(O)cc3o2)ccc1O` [sotetsuflavone], the IC50 (RdRp Dengue virus) is given as 0.16 µM.

In the case of `O=C(/C=C/CCc1ccc(O)c(O)c1)CCc1ccc(O)c(O)c1` [Ligand L01, Hirsutenone], the IC50 (SARS-CoV-PLpro; 0-200 µM/60min, ref Park et al., 2012a, read-out: IC50) is given as 4.1 µM.

For `O[C@H]1[C@H]2c3cc4c(cc3CN3CCC(=C[C@@H]1O)[C@H]23)OCO4` [lycorine], the EC50 (HcoV-NL63; in vitro, ref Shen et al., 2019, read-out: EC50 HcoV-NL63) is listed as 0.47 µM, the EC50 (MERS-CoV; in vitro, ref Shen et al.) is listed as 1.63 µM and the EC50 (HcoV-OC43; in vitro, ref Shen et al.) is listed as 0.15 µM. The EC50 (SARS-CoV [3]; MTS test, read-out: EC50 against SARS-CoV) was 0.0157 ± 0.0012 µM and the IC50 (SARS-CoV [3]; Prasansuklab et al., 2020, read-out: IC50 anti-SARS-CoV) was 0.0157 µM.

For curcumin, the IC50 (SARS-CoV-PLpro; diarylheptanoids, ref Park et al., 2012a, read-out: IC50 PLpro) is given as 5.7 µM.

In the case of `O=c1cc(-c2ccc(O)c(-c3c(O)cc(O)c4c(=O)cc(-c5ccc(O)cc5)oc34)c2)oc2cc(O)cc(O)c12` [Ligand L14, Amentoflavone], the IC50 (SARS-CoV-3CLpro; 0-300 µM, ref Ryu et al., 2010a, read-out: IC50) is listed as 8.3 µM.

In the case of `CC[C@H](CC[C@@H](C)[C@H]1CC[C@H]2[C@@H]3CC=C4C[C@@H](O)CC[C@]4(C)[C@H]3CC[C@]12C)C(C)C` [Sitosternol], the EC50 (HcoV-NL63; ref Lin et al., 2005, read-out: EC50 against human coronavirus (HCoV-NL63)) is given as 1210 µM.

In the case of `CC(C)=CCc1cc2c(cc1O)oc(=O)c1c3ccc(O)cc3oc21` [Ligand L04, Psoralidin], the IC50 (SARS-CoV-PLpro; 0-100 µM, ref Kim et al., 2014, read-out: IC50) is listed as 4.2 µM.

In the case of `Oc1cc(O)cc(Oc2c(O)cc(O)c3c2Oc2c(O)cc(Oc4c(O)cc(Oc5c(O)cc(O)c6c5Oc5c(O)cc(O)cc5O6)cc4O)cc2O3)c1` [Ligand L05, Dieckol], the IC50 (SARS-CoV-3CLpro; 0-200 µM, ref Park et al., 2013, read-out: IC50) is listed as 2.7 µM.

For `COc1ccc(C(=O)/C=C/c2ccc(O)cc2)c(O)c1C/C=C(\C)CCC=C(C)C` [xanthoangelol F], the IC50 (SARS-CoV-PLpro; noncompetitive inhibition, ref Park et al., 2016, read-out: IC50 PLpro) is listed as 5.6 µM.

In the case of `Cc1coc2c1C(=O)C(=O)c1c-2ccc2c1CCCC2(C)C` [tanshinone IIA], the IC50 (SARS-CoV-PLpro; [7]) is given as 1.6 µM.

For `O=c1cc(-c2ccccc2)oc2cc(O)cc(O)c12` [chrysin], the “effect on the interaction of S protein with ACE2” value [4] is listed as “weak inhibitory effect”.

In the case of `COC(=O)[C@H]1[C@H]2C[C@@H]3c4[nH]c5cc(OC)ccc5c4CCN3C[C@H]2C[C@@H](OC(=O)c2cc(OC)c(OC)c(OC)c2)[C@@H]1OC` [Reserpine], the EC50 (SARS-CoV [5]) is listed as 3.4 µM.

In the case of `C[C@H]1COC2=C1C(=O)C(=O)c1c2ccc2c1CCCC2(C)C` [Ligand L08, Cryptotanshinone], the IC50 (SARS-CoV-PLpro; 0-200 µM/30min, ref Park et al., 2012b, read-out: IC50) is listed as 0.8 µM.
